The values that follow come from ChEMBL document CHEMBL4513161, “CO-ADD screening of MMV (CH) - Pandemic Response Box” (2021).

By CC50 is commonly meant the concentration that lowers cell viability or growth by half.

In one experiment the test system is Klebsiella pneumoniae. Put plainly: microbe, parasite or virus in culture. Particulars: ATCC 700603, 18 h, ASSAY_TEST Inhibition of Bacterial Growth, detection method Absorption (OD600), MEDIA CAMHB, plate type 384well, NBS, CORNING #3640.
For a further experiment, the system named is Staphylococcus aureus. Kind of experiment: microbe, parasite or virus in culture. As to conditions: ATCC 43300, 18 h, ASSAY_TEST Inhibition of Bacterial Growth, detection method Absorption (OD600), MEDIA CAMHB, plate type 384well, NBS, CORNING #3640.
A further experiment has as its system HEK293. Kind of experiment: cells. The class given is functional, Homo sapiens, ATCC CRL1573. As to conditions: Homo sapiens, ATCC CRL1573, HEK293; ASSAY_TEST Inhibition of Cell Viability; detection method Resazurin; Fluorescence (ex560/em590); MEDIA DMEM with 10% FBS; plate type 384well; TC; CORNING #3712; time 18 hr; read-out: CC50. On the technique in general: Alamar Blue is a resazurin reagent that responds to reducing activity.

The subject of experiment [1] is Pseudomonas aeruginosa. Kind of experiment: microbe, parasite or virus in culture. Particulars: ATCC 27853, 18 h, ASSAY_TEST Inhibition of Bacterial Growth, detection method Absorption (OD600), MEDIA CAMHB, plate type 384well, NBS, CORNING #3640.
Description: Antibacterial activity against Pseudomonas aeruginosa ATCC 27853 (CO-ADD:GN_042); MIC in CAMBH media using NBS plates, by OD(600)
A further experiment concerns Candida albicans. Put plainly: microbe, parasite or virus in culture. Particulars: ATCC 90028, ASSAY_TEST Inhibition of Fungal Growth, detection method Absorption (OD530), plate type 384well, NBS, CORNING #3640.
The test system of the next experiment is Acinetobacter baumannii. Kind of experiment: microbe, parasite or virus in culture. As to conditions: ATCC 19606, 18 h, ASSAY_TEST Inhibition of Bacterial Growth, detection method Absorption (OD600), MEDIA CAMHB, plate type 384well, NBS, CORNING #3640.
For experiment [2], the system named is Pseudomonas aeruginosa. Put plainly: Antibacterial activity against Pseudomonas aeruginosa PAO397 [PAO1 d(mexAB-oprM) d(mexCD-oprJ) d(mexEF-oprN) d(mexJKL) d(mexXY) d(opmH)] (CO-ADD:GN_211); MIC in CAMBH media using NBS plates, by OD(600). The class given is functional. Particulars: ASSAY_TEST Inhibition of Bacterial Growth, detection method Absorption (OD600), MEDIA CAMHB, plate type 384well, CORNING #3640, time 18 hr.

Another experiment has as its system Escherichia coli. Kind of experiment: microbe, parasite or virus in culture. As to conditions: ATCC 25922, 18 h, ASSAY_TEST Inhibition of Bacterial Growth, detection method Absorption (OD600), MEDIA CAMHB, plate type 384well, NBS, CORNING #3640.

A value given as a limit tells only on which side of the number the result lay.

Description for Acinetobacter baumannii: Antibacterial activity against Acinetobacter baumannii ATCC 19606 (CO-ADD:GN_034); MIC in CAMBH media using NBS plates, by OD600
Description for Candida albicans: Antifungal activity against Candida albicans ATCC 90028 (CO-ADD:FG_001); MIC in YNB media using NBS plates, by OD630
Description for Cryptococcus neoformans: Antifungal activity against Cryptococcus neoformans H99 ATCC 208821 (CO-ADD:FG_002); MIC in YNB media using NBS plates, by Resazurin OD(600-570)
Description for Escherichia coli: Antibacterial activity against Escherichia coli ATCC 25922 (CO-ADD:GN_001); MIC in CAMBH media using NBS plates, by OD(600)
Description for Klebsiella pneumoniae: Antibacterial activity against Klebsiella pneumoniae MDR ATCC 70063 (CO-ADD:GN_003); MIC in CAMBH media using NBS plates, by OD(600)
Description for Staphylococcus aureus: Antibacterial activity against Staphylococcus aureus MRSA ATCC 43300 (CO-ADD:GP_020); MIC in CAMBH media, using NBS plates, by OD(600)

On to `O=c1[nH]c(=O)n(Cc2cccc(Oc3ccccc3)c2)cc1Nc1ccccc1`, for which the MIC with Cryptococcus neoformans, against Klebsiella pneumoniae, in the experiment on Staphylococcus aureus, against Pseudomonas aeruginosa [1], in the experiment on Candida albicans and against Acinetobacter baumannii was greater than 20 µM throughout. Besides, the MIC against Pseudomonas aeruginosa [2] and in the experiment on Escherichia coli was greater than 20 µM throughout. Also, the 50% cytotoxic concentration (CC50) with HEK293 is greater than 20 µM.

On to `Oc1ccc(NCc2ccccc2OCc2ccccc2)cc1`, for which the MIC against Cryptococcus neoformans, against Klebsiella pneumoniae, with Staphylococcus aureus, against Pseudomonas aeruginosa [1], against Candida albicans and against Acinetobacter baumannii was greater than 20 µM throughout. Further, the MIC with Pseudomonas aeruginosa [2] and in the experiment with Escherichia coli was greater than 20 µM in each case. Besides, the CC50 in the experiment with HEK293 is greater than 20 µM.

For the compound `NC(=O)c1c(N)sc2c1CCCCC2`, the MIC with Cryptococcus neoformans, in the experiment with Klebsiella pneumoniae, with Staphylococcus aureus, with Pseudomonas aeruginosa [1], against Candida albicans and in the experiment with Acinetobacter baumannii was greater than 20 µM in each case. In addition, the MIC with Pseudomonas aeruginosa [2] and with Escherichia coli was greater than 20 µM throughout. Moreover, in the experiment on HEK293, the CC50 was greater than 20 µM.

As to `O=C(c1cc(O)nc2ccccc12)N1CCN(c2ccccc2)CC1`, the MIC in the experiment with Cryptococcus neoformans, against Klebsiella pneumoniae, against Staphylococcus aureus, against Pseudomonas aeruginosa [1], in the experiment on Candida albicans and with Acinetobacter baumannii was greater than 20 µM throughout. Besides, the MIC with Pseudomonas aeruginosa [2] and against Escherichia coli was greater than 20 µM in each case. Further, in the experiment with HEK293, the 50% cytotoxic concentration (CC50) is greater than 20 µM.

Regarding `COc1ccc(NS(=O)(=O)c2ccc(Cl)s2)cn1`, the MIC in the experiment on Cryptococcus neoformans, in the experiment with Klebsiella pneumoniae, with Staphylococcus aureus, in the experiment on Pseudomonas aeruginosa [1], against Candida albicans and against Acinetobacter baumannii was greater than 20 µM each time. The MIC in the experiment on Pseudomonas aeruginosa [2] and with Escherichia coli was greater than 20 µM in each case. The half-maximal cytotoxic concentration (CC50) in the experiment with HEK293 was greater than 20 µM.

For the compound `CCc1cc(CCC(=O)Nc2ccccc2O)c(O)nc1C`, the MIC in the experiment with Cryptococcus neoformans, with Klebsiella pneumoniae, in the experiment with Staphylococcus aureus, against Pseudomonas aeruginosa [1], in the experiment on Candida albicans and with Acinetobacter baumannii was greater than 20 µM each time. Besides, the MIC against Pseudomonas aeruginosa [2] and against Escherichia coli was greater than 20 µM in each case. Further, in the experiment with HEK293, the 50% cytotoxic concentration (CC50) is greater than 20 µM.

For `NC(=O)c1nccn([C@@H]2O[C@H](CO)[C@@H](O)[C@H]2O)c1=O`, the MIC against Cryptococcus neoformans, against Klebsiella pneumoniae, in the experiment on Staphylococcus aureus, against Pseudomonas aeruginosa [1], against Candida albicans and against Acinetobacter baumannii was greater than 20 µM each time. In addition, the MIC against Pseudomonas aeruginosa [2] and in the experiment with Escherichia coli was greater than 20 µM in each case. Moreover, the 50% cytotoxic concentration (CC50) in the experiment on HEK293 was greater than 20 µM.

Regarding `CC[N+]1(C/C2=C/CCCCCC2)CCC(NC(=O)C2c3cc(Cl)ccc3Oc3ccc(Cl)cc32)CC1` (stereo not given), the MIC in the experiment with Cryptococcus neoformans was greater than 20 µM; in the experiment on Klebsiella pneumoniae it was greater than 20 µM; in the experiment on Staphylococcus aureus, 20 µM; against Pseudomonas aeruginosa [1] it was greater than 20 µM; in the experiment on Candida albicans, greater than 20 µM; in the experiment with Acinetobacter baumannii, greater than 20 µM. Also, the MIC with Pseudomonas aeruginosa [2] and in the experiment with Escherichia coli was greater than 20 µM throughout. The cytotoxic concentration (CC50) in the experiment with HEK293 was greater than 20 µM.

Consider `Nc1ccc2oc(=O)ccc2c1I`, for which the MIC against Cryptococcus neoformans, with Klebsiella pneumoniae, in the experiment on Staphylococcus aureus, against Pseudomonas aeruginosa [1], in the experiment on Candida albicans and in the experiment with Acinetobacter baumannii was greater than 20 µM each time. Also, the MIC with Pseudomonas aeruginosa [2] and in the experiment on Escherichia coli was greater than 20 µM in each case. Further, in the experiment on HEK293, the CC50 was greater than 20 µM.

With `O=c1oc2ccc(Br)cc2cc1CSc1ncc[nH]1`, the MIC with Cryptococcus neoformans, against Klebsiella pneumoniae, against Staphylococcus aureus, in the experiment with Pseudomonas aeruginosa [1], against Candida albicans and against Acinetobacter baumannii was greater than 20 µM throughout. In addition, the MIC in the experiment on Pseudomonas aeruginosa [2] and with Escherichia coli was greater than 20 µM each time. Besides, the CC50 in the experiment on HEK293 was greater than 20 µM.
